Like-named read-outs stand apart in the source and are kept apart here.
Key:
[1] = target: T1, Agrocybe aegerita lectin 2 (AAL2) (Cyclocybe aegerita, UniProt H6CS64); assay: crystal structure of the complex ([…] Å) and SPR steady-state affinity; type: binding
T1 construct: gene aal-2; recombinant AAL2 without any tag, expressed in E. coli BL21 (DE3); 407 amino acid residues
T1 sequence (H6CS64 1-407): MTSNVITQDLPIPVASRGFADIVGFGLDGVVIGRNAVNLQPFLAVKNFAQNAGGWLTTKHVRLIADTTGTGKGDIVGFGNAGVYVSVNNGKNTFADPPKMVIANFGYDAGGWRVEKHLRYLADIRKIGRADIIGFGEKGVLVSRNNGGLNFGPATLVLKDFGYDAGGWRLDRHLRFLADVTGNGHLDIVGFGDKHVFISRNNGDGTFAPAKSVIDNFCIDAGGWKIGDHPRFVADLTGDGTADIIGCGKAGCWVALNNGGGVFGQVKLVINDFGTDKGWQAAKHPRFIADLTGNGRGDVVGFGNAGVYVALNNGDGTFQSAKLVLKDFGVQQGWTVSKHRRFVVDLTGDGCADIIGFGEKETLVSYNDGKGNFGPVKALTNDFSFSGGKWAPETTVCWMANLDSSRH

[2] = target: T1, Agrocybe aegerita lectin 2 (AAL2); assay: as above; type: binding; remark: listed apart in the source

Kd [1] | Kd [2] | Structure (SMILES)
28.3 µM |  | CC(=O)N[C@@H]1[C@@H](O)[C@H](O)[C@@H](CO)O[C@H]1O [GlcNAc]
 | 41.7 µM | CC(=O)N[C@H]1[C@H](O[C@H]2[C@@H](O)[C@@H](CO)O[C@@H](O[C@H]3[C@H](O)[C@@H](NC(C)=O)C(O)O[C@@H]3CO)[C@@H]2O)O[C@H](CO)[C@@H](O)[C@@H]1O (some centres unmarked) [GlcNAcβ1-3Galβ1-4GlcNAc]

Reference: publication PMC4483166, “Structural Basis of Specific Recognition of Non-Reducing Terminal N-Acetylglucosamine by an Agrocybe aegerita Lectin” (PLoS ONE, 2015)
